Tests used:
[1] = species: Homo sapiens; experiment: Inhibition of arachidonic acid-induced and ADP-induced platelet aggregation of human platelet rich plasma; assay type: functional; settings: read-out: I50
[2] = target: T1, Thromboxane A2 receptor (Homo sapiens, UniProt P21731); experiment: Binding affinity was determined for Thromboxane A2 receptor in human platelet membrane in presence of [3H]-SQ-29,548 radioligand; assay type: cell membranes
T1 sequence (P21731 whole entry): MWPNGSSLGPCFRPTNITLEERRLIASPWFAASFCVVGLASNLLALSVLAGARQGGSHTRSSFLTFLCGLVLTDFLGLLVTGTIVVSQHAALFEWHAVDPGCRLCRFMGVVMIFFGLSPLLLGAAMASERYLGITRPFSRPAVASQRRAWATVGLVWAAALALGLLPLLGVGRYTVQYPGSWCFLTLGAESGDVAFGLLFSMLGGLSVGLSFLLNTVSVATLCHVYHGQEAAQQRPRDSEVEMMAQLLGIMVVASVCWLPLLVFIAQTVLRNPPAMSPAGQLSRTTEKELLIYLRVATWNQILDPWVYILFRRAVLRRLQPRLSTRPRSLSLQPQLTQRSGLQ

Row | SMILES | IC50 ([1]; Homo sapiens, Plasma) | other results
1 | O=C(O)CCc1ccccc1C(=O)N1[C@@H](O)CC[C@H]1c1nc(C(=O)NCCc2ccc(Cl)cc2)co1 | 3.7 µM | 
2 | O=C(O)CCc1ccccc1C(=O)N1c2ccccc2CC1c1nc(C(=O)NCCc2ccc(Cl)cc2)co1 (single isomer, unassigned; (-)) |  | IC50 [1]: 3.7 µM
3 | O=C(O)CCc1ccccc1CN1CCC[C@@H]1c1nc(C(=O)NCCCCC2CCCCC2)co1 | 1.7 µM | 
4 | O=C(O)CCc1ccccc1C(=O)N1c2ccccc2CC1c1nc(C(=O)NCCc2ccc(Cl)cc2)co1 (single isomer, unassigned; (+)) |  | IC50 [1]: 0.25 µM
5 | O=C(O)CCc1ccccc1CN1CCCC1c1nc(C(=O)NCCCCC2CCCCC2)co1 (stereo not drawn) |  | Kd [2]: 0.011 µM
6 | O=C(O)CCc1ccccc1CN1C(=O)CCC1c1nc(C(=O)NCCCCC2CCCCC2)co1 (stereo not drawn) | 23 µM | 
7 | O=C(O)CCc1ccccc1CN1CCC[C@H]1c1nc(C(=O)NCCCCC2CCCCC2)co1 | 0.019 µM | 
8 | O=C(O)CCc1ccccc1C(=O)N1CCC[C@H]1c1nc(C(=O)NCCCCC2CCCCC2)co1 | 0.019 µM | 

Reference: ChEMBL document CHEMBL1126504, “Synthesis of pyrrolidine oxazoles as thromboxane A2/endoperoxide receptor antagonists” (Bioorg Med Chem Lett, 1993)
